Reference: US12320800B2, “High-throughput automation of organoids for identifying therapeutic strategies” (UNIVERSITY OF WASHINGTON, priority 2018, dated 2025)
In brackets after ≈: the same amount, converted by molar mass.

Key:
skeletal muscle myosin = details: read-out: AC50, actomyosin ATPase activity; cited from earlier work
PKD organoids = assay: Live-dead viability analysis of PKD organoids after EMD treatment; format: cell-based, human; details: 10 μM for two weeks
Experimental: To assess potential toxicity in human organoids, morphology was examined by phase-contrast microscopy during the treatment time course and performed a live-dead analysis of organoids at the endpoint of treatment (10 μM EMD for two weeks).

non-cardiac myosin II = details: cited from earlier work
[1] = test system: PKD1−/− and PKD2−/− mutant organoids; assay: Prophylactic effect of myosin activators on cyst formation in PKD organoids in suspension; format: cell-based, human
Source text: Cyst formation. In adherent cultures (untreated), ‘cysts’ were identified as large, balloon-like, translucent structures that swayed in response to agitation. Flat rings and dilated tubules were not counted as cysts and occasionally appeared even in non-PKD controls. […] Wells were imaged using a Nikon TiE inverted wide-field microscope and cysts were quantified using ImageJ cell counter. To generate large cysts in suspension, adherent organoids were microdissected with a 23-gauge syringe needle from 24-well plates on an inverted phase-contrast microscope, and carefully transferred using a transfer pipette into a low-adhesion 6-well plate (Corning) containing 2 ml RB. The organoids were isolated on the twenty-first day of differentiation, before cysts formed. RB media was changed by gravity every three days, and cystogenesis was assessed at two weeks after replating.
EMD was efficient at rescuing cyst formation at the lowest dose tested (3 μM) and worked in both PKD1^−/− and PKD2^−/− mutant organoids.

myosin = details: Table 5 listing; cited from earlier work
PKD1RC/RC mouse = assay: EMD pilot trial in PKD1RC/RC mouse; format: in vivo; details: for survival, distress and adverse effects: 5 mg/kg
Experimental: Efficacy In Vivo: To reproduce EMD's effects in an animal model, small pilot trial was performed in the PKD1RC/RC mouse. Animals at five months of age, a time point where cysts have already formed, were injected intraperitoneally with EMD four times over 2.5 weeks (FIG. 24A). EMD was dissolved in 400 μL PBS solution at 5 mg/kg (˜25 μM in mouse blood).
These animals were sacrificed and analyzed their kidney tissue.

[2] = cited from earlier work
β-cardiac myosin = β-cardiac myosin (Homo sapiens, UniProt P12883); details: read-out: AC50, actomyosin ATPase activity; cited from earlier work
liver cells = details: in vitro; cited from earlier work
late-stage PKD organoids = assay: Regression of pre-existing cysts in late-stage PKD organoids; format: cell-based, human; details: one week
Source text: Reduction of pre-existing cysts would be a major advantage over tolvaptan. In an acute setting, EMD could be used to reduce pain from swollen cysts, and in a chronic setting it could potentially reverse the course of disease.

myosin motor domain = details: allosteric pocket of the myosin motor domain; cited from earlier work
[3] = canines, orally administered, optimized for dissolution; cited from earlier work
[4] = expected value, WT control or EMD, Aim 1
[5] = 5 mg/kg intraperitoneally, four times over 2.5 weeks
[6] = high dose (5 mg/kg) applied repeatedly

Sequence of β-cardiac myosin (P12883 whole entry): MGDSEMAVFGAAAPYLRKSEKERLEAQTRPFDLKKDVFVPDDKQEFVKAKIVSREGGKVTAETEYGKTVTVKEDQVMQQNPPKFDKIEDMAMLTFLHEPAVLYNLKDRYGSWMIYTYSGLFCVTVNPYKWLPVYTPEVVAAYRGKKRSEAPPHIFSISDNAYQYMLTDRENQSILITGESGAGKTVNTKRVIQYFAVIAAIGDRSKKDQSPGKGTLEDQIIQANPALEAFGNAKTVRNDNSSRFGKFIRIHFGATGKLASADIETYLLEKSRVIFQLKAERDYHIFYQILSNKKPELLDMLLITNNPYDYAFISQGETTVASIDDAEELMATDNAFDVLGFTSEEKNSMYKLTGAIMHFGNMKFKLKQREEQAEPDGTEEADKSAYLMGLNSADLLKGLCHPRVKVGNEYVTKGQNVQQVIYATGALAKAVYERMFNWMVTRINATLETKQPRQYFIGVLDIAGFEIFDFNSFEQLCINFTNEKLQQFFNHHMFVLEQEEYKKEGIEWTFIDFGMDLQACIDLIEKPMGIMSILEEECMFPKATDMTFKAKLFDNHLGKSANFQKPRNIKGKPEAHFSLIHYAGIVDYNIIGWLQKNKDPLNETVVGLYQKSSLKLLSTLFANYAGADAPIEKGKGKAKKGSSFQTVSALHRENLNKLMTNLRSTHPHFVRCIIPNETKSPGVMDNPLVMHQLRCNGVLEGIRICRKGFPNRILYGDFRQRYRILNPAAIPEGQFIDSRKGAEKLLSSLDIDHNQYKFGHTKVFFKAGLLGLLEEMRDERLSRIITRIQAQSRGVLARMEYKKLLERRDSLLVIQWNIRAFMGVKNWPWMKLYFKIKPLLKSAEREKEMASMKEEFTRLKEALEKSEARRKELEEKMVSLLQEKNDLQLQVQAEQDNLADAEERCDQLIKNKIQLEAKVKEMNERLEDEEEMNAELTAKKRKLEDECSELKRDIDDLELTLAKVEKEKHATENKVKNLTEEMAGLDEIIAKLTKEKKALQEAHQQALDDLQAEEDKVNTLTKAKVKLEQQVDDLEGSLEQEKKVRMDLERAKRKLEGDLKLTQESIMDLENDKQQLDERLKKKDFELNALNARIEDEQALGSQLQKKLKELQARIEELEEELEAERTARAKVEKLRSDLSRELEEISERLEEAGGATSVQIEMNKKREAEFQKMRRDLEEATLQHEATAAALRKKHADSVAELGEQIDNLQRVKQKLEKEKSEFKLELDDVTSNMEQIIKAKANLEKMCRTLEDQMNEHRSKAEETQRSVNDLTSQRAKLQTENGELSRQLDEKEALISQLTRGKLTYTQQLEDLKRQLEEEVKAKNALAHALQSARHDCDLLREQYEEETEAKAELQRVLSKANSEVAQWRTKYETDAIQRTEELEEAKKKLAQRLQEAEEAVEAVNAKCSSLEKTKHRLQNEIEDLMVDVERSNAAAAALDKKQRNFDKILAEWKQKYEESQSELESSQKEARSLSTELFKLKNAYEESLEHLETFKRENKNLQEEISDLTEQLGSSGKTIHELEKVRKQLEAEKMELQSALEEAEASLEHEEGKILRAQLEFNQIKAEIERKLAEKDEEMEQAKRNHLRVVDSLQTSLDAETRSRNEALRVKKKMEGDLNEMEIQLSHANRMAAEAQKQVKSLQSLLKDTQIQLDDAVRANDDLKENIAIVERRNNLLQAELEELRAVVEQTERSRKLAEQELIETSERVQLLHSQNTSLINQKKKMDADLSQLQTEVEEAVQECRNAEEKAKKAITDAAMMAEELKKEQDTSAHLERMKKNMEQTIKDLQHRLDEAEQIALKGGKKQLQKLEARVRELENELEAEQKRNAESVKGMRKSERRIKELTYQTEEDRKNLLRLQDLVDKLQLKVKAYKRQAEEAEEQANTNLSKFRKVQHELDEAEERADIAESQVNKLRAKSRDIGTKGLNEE
Sequence of β-cardiac myosin (P08590 whole entry partner): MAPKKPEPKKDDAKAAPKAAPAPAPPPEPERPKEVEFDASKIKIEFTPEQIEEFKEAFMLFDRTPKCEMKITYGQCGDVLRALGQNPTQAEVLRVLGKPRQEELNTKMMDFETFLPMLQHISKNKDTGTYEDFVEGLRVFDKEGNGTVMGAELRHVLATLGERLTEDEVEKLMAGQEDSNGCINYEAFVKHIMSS

Structure (SMILES): COc1ccc(C(=O)N2CCCc3cc(C4=NNC(=O)SC4C)ccc32)cc1OC (single isomer, unassigned; (+)) [EMD, (+)-5-(1-(3,4-Dimethoxybenzoyl)-1,2,3,4-tetrahydroquinolin-6-yl)-6-methyl-3,6-dihydro-2H-1,3,4-thiadiazin-2-one]
- AC50 (skeletal muscle myosin): 15.1 µM
- toxicity (phase-contrast morphology and live-dead analysis) (PKD organoids): no significant toxicity
- increase of non-cardiac myosin II activity (non-cardiac myosin II): three-fold
- lowest dose tested, efficient at rescuing cyst formation ([1]; PKD1−/− and PKD2−/− mutant organoids): 3 µM
- Cyst diameter (mm) [1, 4]: 0.12 ± 0.04 mm
- Cystic organoids (%) [1, 4]: 15 ± 6%
- formation and size of resultant cysts ([1]; pre-cystic organoids in suspension, versus untreated controls): effectively reduced the formation and size of the resultant cysts
- efficacy on cysts in the presence of blebbistatin ([1]; with blebbistatin): effective even in the presence of blebbistatin
- effect (myosin): ↑ myosin
- blood urea nitrogen levels (BUN) (PKD1RC/RC mouse; [5]): reduced
- kidney weight (PKD1RC/RC mouse; [5]): reduced
- superficial (renal cortical) cysts by gross morphology (PKD1RC/RC mouse; 5 mg/kg intraperitoneally, four times over 2.5 weeks, five months of age): noticeably reduced superficial (renal cortical) cysts
- BUN (PKD1RC/RC mouse; [4]): 20 ± 5 mg/dL
- kidney weight (PKD1RC/RC mouse; [4]): 0.30 ± 0.1 g
- alpha-SMA+ area (%) (PKD1RC/RC mouse; expected value, WT control or EMD, Aim 2): 25 ± 4%
- fibrosis in the kidneys (PKD1RC/RC mouse; [6]): No fibrosis was observed
- survival, distress and adverse effects (PKD1RC/RC mouse; [6]): no adverse effects or mortality
- survival, distress and adverse effects (PKD1RC/RC mouse; mouse, in vivo): all animals survived, and none showed any signs of distress
- acute tubular necrosis, proximal tubules (LTL+) (PKD1RC/RC mouse; treated kidneys): no evidence of acute tubular necrosis
- cyst size in kidney sections (PKD1RC/RC mouse; treated kidneys): smaller cysts
- expression of smooth muscle alpha-actin (PKD1RC/RC mouse; treated kidneys): reduced expression
- aqueous solubility [2]: 5 µg/mL (≈ 11.8 µM)
- AC50 (β-cardiac myosin): 7 µM
- metabolism by liver cells (liver cells): metabolized by liver cells into demethylated and/or hydroxylated forms by CYP-dependent mechanisms
- size of pre-formed cysts (late-stage PKD organoids; late-stage PKD organoids (day 37), 5 μM): acute reduction in the size of pre-formed cysts
- toxicity at these doses (late-stage PKD organoids; late-stage PKD organoids): No overt toxicity
- Kd (myosin motor domain): 7.3 µM
- Tmax [3]: ~2.5 h
- average Cmax [3]: ~40 ng/mL
